Structures can show the parent of a compound that is named as a salt.

Our source for the melting point values is US20040214864A1, “Novel compounds” (priority 2000, published 2004).

The compound `O=C(c1ccc(-c2nn(Cc3cccc(Cl)c3)c(=S)[nH]2)cc1)N1CCN(c2cccc(Cl)c2)CC1` (as salt: hydrochloride) [Example 8, 2-[(3-Chlorophenyl)methyl]-5-[4-[[4-(3-chlorophenyl)-1-piperazinyl]carbonyl]phenyl]-2,4-dihydro-3H-1,2,4-triazole-3-thione] displayed a melting point of 260 to 262 °C. In turn, `O=C(O)c1ccc(-c2nn(Cc3cccc(Cl)c3)c(=S)[nH]2)cc1` [Example 1, 4-[1-[(3-Chlorophenyl)methyl]-4,5-dihydro-5-thioxo-1H-1,2,4-triazol-3-yl]-benzoic acid] gave a melting point of 302 °C.

In turn, `COC(=O)c1ccc(-c2nn(Cc3cccc(Cl)c3)c(=S)[nH]2)cc1` [Example 2, Methyl 4-[1-[(3-Chlorophenyl)methyl]-4,5-dihydro-5-thioxo-1H-1,2,4-triazol-3-yl]-benzoate] showed a melting point of 263.5 to 264.5 °C. As for `NC(=O)c1ccc(-c2nn(Cc3cccc(Cl)c3)c(=S)[nH]2)cc1` [Example 3, 4-[1-[(3-Chlorophenyl)methyl]-4,5dihydro-5-thioxo-1H-1,2,4-triazol-3-yl]-benzamide], the figure is 310 to 312 °C; as for `CN(C)C(=O)c1ccc(-c2nn(Cc3cccc(Cl)c3)c(=S)[nH]2)cc1` [Example 4, 4-[1-[(3-Chlorophenyl)methyl]-4,5-dihydro-5-thioxo-1H-1,2,4-triazol-3-yl]-N,N-dimethyl-benzamide], 302 to 304 °C. As for `CC(C)CCNC(=O)c1ccc(-c2nn(Cc3cccc(Cl)c3)c(=S)[nH]2)cc1` [Example 5, 4-[1-[(3-Chlorophenyl)methyl]-4,5-dihydro-5-thioxo-1H-1,2,4-triazol-3-yl]-N-(3-methylbutyl)-benzamide], the figure is 218 to 220 °C. For `C[C@@H](NC(=O)c1ccc(-c2nn(Cc3cccc(Cl)c3)c(=S)[nH]2)cc1)[C@@H](O)c1ccccc1` [Example 6, [1R, 2S]-4-[1-[(3-Chlorophenyl)methyl]-4,5-dihydro-5-thioxo-1H-1,2,4-triazol-3-yl]-N-(2-hydroxy-1-methyl-2-phenylethyl)-benzamide] the value was 220 to 222 °C.

`O=C(NCCO)c1ccc(-c2nn(Cc3cccc(Cl)c3)c(=S)[nH]2)cc1` [Example 7, 4-[1-[(3-Chlorophenyl)methyl]-4,5-dihydro-5-thioxo-1H-1,2,4-triazol-3-yl]-N-(2-hydroxyethyl)-benzamide] showed a melting point of 188 to 190 °C. For `O=C(O)c1ccccc1-c1nn(Cc2cccc(Cl)c2)c(=S)[nH]1` [Example 11, 2-[1-[(3-Chlorophenyl)methyl]-4,5-dihydro-5-thioxo-1H-1,2,4-triazol-3-yl]-benzoic acid] the value was 234 to 238 °C. In the case of `O=C(O)c1cccc(-c2nn(Cc3cccc(Cl)c3)c(=S)[nH]2)c1` [Example 12, 3-[1-[(3-Chlorophenyl)methyl]-4,5-dihydro-5-thioxo-1H-1,2,4-triazol-3-yl]-benzoic acid], the melting point was in the range of 314 to 316 °C. Compound `NS(=O)(=O)c1ccc(-c2nn(Cc3cccc(Cl)c3)c(=S)[nH]2)cc1` [Example 13, 4-[1-[(3-chlorophenyl)methyl]-4,5dihydro-5-thioxo-1H-1,2,4-triazol-3-yl]-benzenesulfonamide] registered a melting point of 281 to 283 °C. For `COC(=O)C(CO)NC(=O)c1cccc(-c2nn(Cc3cccc(Cl)c3)c(=S)[nH]2)c1` (stereo not shown) [Example 14], the melting point was in the range of 188 to 196 °C. In turn, `CN(C)CC(C)(C)CNC(=O)c1cccc(-c2nn(Cc3cccc(Cl)c3)c(=S)[nH]2)c1` [Example 15, 3-{1-[(3-Chlorophenyl)methyl]-1,2-dihydro-5thioxo-1H[1,2,4]triazol-3-yl}-N-(2-methyl-2-dimethylaminomethylpropyl)benzamide] yielded a melting point of 173 to 175 °C. For `CN(C)C(=O)c1cccc(-c2nn(Cc3cccc(Cl)c3)c(=S)[nH]2)c1` [Example 16, 3-{1-[(3-Chlorophenyl)methyl]-1,2-dihydro-5thioxo-1H[1,2,4]triazol-3-yl}-N,N-dimethylbenzamide] the value was 184 to 187 °C; for `N#CCNC(=O)c1cccc(Cn2nc(-c3ccccc3Cl)[nH]c2=S)c1` [Example 17], 178 to 182 °C. As for `O=C(NCCF)c1cccc(Cn2nc(-c3ccccc3Cl)[nH]c2=S)c1` [Example 18], the figure is 165 to 168 °C.

A word on the melting point: it is the temperature, or range, at which the solid turns liquid.
